{
  "source": "patent US20140018251A1",
  "about": "“Methods for Predicting Response to Anti-Cancer Therapy in Cancer Patients” (Stichting Het Nederlands Kanker Instituut, priority 2010, published 2014)",
  "origin": "cited, not measured here",
  "system": "mouse mammary tumors lacking BRCA1",
  "data": [
    {"smiles": "N.N.[Cl][Pt][Cl]", "note": "[cisplatin]", "values": [
      {"measurement": "sensitivity of tumors", "result": "extremely sensitive"}
    ]}
  ]
}
